# ChEMBL document CHEMBL4219122, “Synthesis and biological evaluation of histone deacetylase and DNA topoisomerase II-Targeted inhibitors” (Bioorg Med Chem, 2018)
# Assays:
# SNB-78 = assay: Growth inhibition of human SNB78 cells after 48 hrs by sulforhodamine B-based colorimetric assay; type: functional; conditions: SNB-78, 48 h
# NCI-H460 = assay: Growth inhibition of human NCI-H460 cells after 48 hrs by sulforhodamine B-based colorimetric assay; type: functional; conditions: NCI-H460, 48 h
# St-4 = assay: Growth inhibition of human St-4 cells after 48 hrs by sulforhodamine B-based colorimetric assay; type: functional; conditions: St-4, 48 h
# MDA-MB-231 = assay: Growth inhibition of human MDA-MB-231 cells after 48 hrs by sulforhodamine B-based colorimetric assay; type: functional; conditions: MDA-MB-231, 48 h
# HCC 2998 = assay: Growth inhibition of human HCC2998 cells after 48 hrs by sulforhodamine B-based colorimetric assay; type: functional; conditions: HCC 2998, 48 h
# DMS-273 = assay: Growth inhibition of human DMS273 cells after 48 hrs by sulforhodamine B-based colorimetric assay; type: functional; conditions: DMS-273, 48 h
# [1] = target: T1, Protein deacetylase HDAC6 (Mus musculus, UniProt Q9Z2V5); assay: Inhibition of recombinant mouse HDAC6 expressed in HEK293T cells co-expressing mouse HDA2 using Ac-KGLGK(Ac)-MCA as substrate after 30 mins in presence of DTT by fluorescence assay
# T1 sequence (Q9Z2V5 whole entry): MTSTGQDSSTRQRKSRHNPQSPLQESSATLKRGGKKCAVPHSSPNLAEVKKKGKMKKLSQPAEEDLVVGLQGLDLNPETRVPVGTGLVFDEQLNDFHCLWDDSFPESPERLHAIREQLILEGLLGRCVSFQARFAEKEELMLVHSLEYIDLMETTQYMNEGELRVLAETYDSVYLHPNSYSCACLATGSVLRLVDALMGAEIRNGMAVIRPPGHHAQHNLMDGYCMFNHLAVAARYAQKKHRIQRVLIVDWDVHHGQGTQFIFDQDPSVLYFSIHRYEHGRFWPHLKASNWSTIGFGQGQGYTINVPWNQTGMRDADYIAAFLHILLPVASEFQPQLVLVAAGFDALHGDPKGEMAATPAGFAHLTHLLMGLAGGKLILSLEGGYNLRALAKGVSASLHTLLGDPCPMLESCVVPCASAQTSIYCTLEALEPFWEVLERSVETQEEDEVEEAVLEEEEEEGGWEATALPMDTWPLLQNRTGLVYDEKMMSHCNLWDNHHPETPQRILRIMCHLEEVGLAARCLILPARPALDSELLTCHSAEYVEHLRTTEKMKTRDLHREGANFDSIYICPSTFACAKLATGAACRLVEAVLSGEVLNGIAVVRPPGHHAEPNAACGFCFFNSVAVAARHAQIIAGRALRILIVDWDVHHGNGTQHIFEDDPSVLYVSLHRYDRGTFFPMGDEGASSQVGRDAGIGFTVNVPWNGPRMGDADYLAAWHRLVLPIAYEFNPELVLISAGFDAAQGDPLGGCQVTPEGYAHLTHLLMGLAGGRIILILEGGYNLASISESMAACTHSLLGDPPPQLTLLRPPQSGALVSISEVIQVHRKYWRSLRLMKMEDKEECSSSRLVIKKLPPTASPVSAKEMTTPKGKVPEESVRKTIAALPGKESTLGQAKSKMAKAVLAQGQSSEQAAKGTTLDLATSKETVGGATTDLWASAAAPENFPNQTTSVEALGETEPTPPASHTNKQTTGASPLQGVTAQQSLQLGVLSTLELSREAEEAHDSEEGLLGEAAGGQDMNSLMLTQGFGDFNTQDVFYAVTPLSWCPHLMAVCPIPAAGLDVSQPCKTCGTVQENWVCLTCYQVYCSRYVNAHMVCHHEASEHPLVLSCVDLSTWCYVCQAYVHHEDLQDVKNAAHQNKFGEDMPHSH
# RXF 631 = assay: Growth inhibition of human RXF631L cells after 48 hrs by sulforhodamine B-based colorimetric assay; type: functional; conditions: RXF 631, 48 h
# MKN-1 = assay: Growth inhibition of human MKN1 cells after 48 hrs by sulforhodamine B-based colorimetric assay; type: functional; conditions: MKN-1, 48 h
# [2] = Growth inhibition of human HBC4 cells after 48 hrs by sulforhodamine B-based colorimetric assay; type: functional; conditions: HBC4, 48 h
# [3] = Selectivity index, ratio of IC50 for human placenta topoisomerase 2alpha to IC50 for mouse HDAC6 expressed in HEK293T cells co-expressing mouse HDA2; type: cell-based
# [4] = Growth inhibition of human BSY1 cells after 48 hrs by sulforhodamine B-based colorimetric assay; type: functional; conditions: BSY-1, 48 h
# SNB-75 = assay: Growth inhibition of human SNB75 cells after 48 hrs by sulforhodamine B-based colorimetric assay; type: functional; conditions: SNB-75, 48 h
Structure (SMILES),GI50 (SNB-78) [µM],GI50 (NCI-H460) [µM],GI50 (St-4) [µM],GI50 (MDA-MB-231) [µM],GI50 (HCC 2998) [µM],GI50 (DMS-273) [µM],IC50 [1] [µM],GI50 (RXF 631) [µM],GI50 (MKN-1) [µM],GI50 [2] [µM],Ratio IC50 [3],GI50 [4] [µM],GI50 (SNB-75) [µM]
Cc1cn([C@@H]2C[C@H](C3(c4ccc(NC(=O)CCCCCCC(=O)NO)cc4)SCCCS3)[C@@H](CO[Si](C)(C)C(C)(C)C)O2)c(=O)[nH]c1=O,10,4.68,8.71,3.09,8.32,3.98,0.044,11.2,4.47,4.17,20,2.63,5.5
Cc1cn([C@H]2C[C@H](C3(c4ccc(NC(=O)CCCCCCC(=O)NO)cc4)SCCCS3)[C@@H](CO[Si](C)(C)C(C)(C)C)O2)c(=O)[nH]c1=O,6.76,3.98,4.07,2.51,3.98,3.89,0.051,3.63,2.95,3.89,–,2.63,5.37
